# Source: US4166125A, “2-Oxo-phenylbutanoic acid derivatives” (Grelan Pharmaceutical Co., Ltd., priority 1977, dated 1979)
# Tests used:
# carrageenin edema = assay: Inhibitory effect on carrageenin edema (oral administration); format: in vivo, rat (Sprague-Dawley strain); conditions: for ED40: Rattus norvegicus, po, 3 h
# Method: Inhibitory effect on carrageenin edema.
# The experiment was carried out according to a method conforming to Van Arman, C. […] One hour after the administration of the test compound, 0.1 ml of 1% carrageenin solution in physiological saline was injected subcutaneously into the plantar sarface of the right hind paws of the rats. One hour after injection of carrageenin, the volume of the injected paws was measured hourly for 4 hours. Inhibition percent to carrageenin edema (%)* was calculated in comparison with the volume of paws of rats of a control group, to which only 0.3% CMC-Na solution was orally administered. [formula]
# gastric mucosa [1] = assay: Effect on gastric mucosa (2) (oral administration); format: in vivo, rat (Sprague-Dawley strain); conditions: rats, 4 hours
# Method: 4 Hours after the administration, the rat was sacrificed with ether, and its stomach was removed. The stomach was treated with 5% formalin for 3 minutes, and gastric mucosa was observed under a stereoscopic microscope. When gastric lesion in the mucosa was found, the number of the lesion in the mucosa was counted.
# [2] = Stability on storage at 50° C. and humidity of 70% for 1 month; format: physicochemical; conditions: among the compounds (I)
# Method: For example, when the compounds (I) are kept at temperature of 50° C., and humidity of 70% for 1 month, no substantial change with respect to their appearances and values of quantitative analysis was observed, and no decomposition product was detected by thin-layer chromatography. Thus compounds (I) are prepared for administration in the form of pharmaceutical compositions according to conventional methods in the field of the art, and it is possible to prepare a pharmaceutical composition which comprises a therapeutically effective amount of at least one compound of the general formula (I) as an active ingredient, i.e. anti-inflammatory composition, in solid administration form (e.g. tablets, granules, powders, capsules, suppository), and liquid administration form (e.g. suspension, emulsion). In that case, as carrier, vehicle, solvent or dispersant, there may be used any of those which are known in the field of art. There may be exemplified water, starch, lactose, crystalline cellulose, magnesium stearate, hydroxypropyl cellulose, mannitol, carboxymethyl cellulose, glycol, ethanol, corn oil, peanut oil, castor oil, cacao butter, isocacao, polyoxyethylene stearate. […]
# [3] = system: writhing syndrome due to acetic acid; assay: Analgesic activity, stretching method (oral administration); format: in vivo, mouse (ddY-strain)
# Method: The experiment was carried out according to a method conforming to Koster R. et al [Federation Proceedings 18, 412, (1960)]. […] 30 Minutes after administration of the test compound, 0.6% acetic acid aqueous solution was injected intraperitoneally to the mice in an amount of 0.1 ml per 10 g of body weight of the mouse, and then frequency of writhing syndrome due to acetic acid was counted for 20 minutes. Inhibition percent to the writhing syndrome was calculated in comparison with frequency of writhing syndrome counted on mice of a control group, to which only 1% gum arabic solution was orally administered.
# [4] = system: febrile body temperature (Brewer's yeast); assay: Antipyretic activity (oral administration); format: in vivo, rat (Sprague-Dawley strain); conditions: 30 mg/Kg
# Method: Antipyretic activity (oral administration)
# According to a method conforming to Winter, C. A. et al [The Journal of Pharmacology and Experimental Therapeutics 133, 117, (1961)], 20% Brewer's yeast suspension in physiological saline was injected subcutaneously to 5 male rats in each group (Sprague-Dawley strain) weighing 200 to 250 g in an amount of 1.0 ml per 100 g of body weight of the rat. After fasting for 18 hours, each test compound suspended in 1% gum arabic solution was administered orally to the rats in an amount of 1.0 ml per 100 g of body weight. Then, the rectal temperature of the rats was taken.
# gastric mucosa [5] = assay: Effect on gastric mucosa (1) (oral administration); format: in vivo, mouse (ddY-strain); set-up: unit not given here; conditions: mice, 4 hours
# Method: 4 Hours after the administration, the mouse was sacrificed with ether, and its stomach was removed. The stomach was treated with 5% formalin for 3 minutes, and gastric mucosa was observed under a stereoscopic microscope. When gastric lesion in the mucosa was found, the length of each lesion was measured. Degree of gastric damage (i.e. GD50)* was calculated on the basis of the length of the lesion of each mouse.
# Remark *: GD50 : The value corresponding to the relative frequency of 50% on the normal probability paper plotted the length of gastric lesions of each mouse.
# adjuvant arthritis = assay: Inhibition to adjuvant arthritis (oral administration); format: in vivo, rat (Sprague-Dawley strain); conditions: for Increase in body weight / Weight of the organs: Adrenal glands / Weight of the organs: Spleen / Weight of the organs: Thymus: once a day for 7 days
# Method: Inhibition to adjuvant arthritis.
# According to a method conforming to Fujihira et al [Oyo Yakuri, 5, 169, (1971)], liquid paraffin suspension of Mycobacterium butiricum (hereinafter abbreviated as adjuvant) was injected subcutaneously to right hind paws of male rats (Spraque-Dawley strain) weighing 150 to 170 g in an amount of 0.3 mg/0.05 ml/rat. 14 Days after adjuvant injection, the rats, paws of which swelled to a similar degree, were selected and they were separated into groups. From the 15th day after adjuvant injection, each test compound suspended in 0.3% CMC-Na solution was orally administered once a day for 7 days to the 7 rats in each group in the dose shown in the following table 2.
# The 16th, 19th and 22nd days after adjuvant injection the volume of left hand paws (i.e. paws not treated with the adjuvant) of the rats and their body weight were measured. Inhibition percent to the arthritis (edema) is calculated according to the same equation as that used in Experiment 1, and the value of ED40 is calculated on the basis of the inhibition percent. Then the rats were sacrificed with ether and the weight of their thymus, adrenal glands and spleen was determined.
# [6] = system: pain threshold of hind paws (Brewer's yeast); assay: Analgesic activity, Randall and Selitto method (oral administration); format: in vivo, rat (Sprague-Dawley strain); conditions: Rattus norvegicus; oral, Litchfield-Wilcoxon method, from increasing percent of pain threshold
# Method: Randall and Selitto method
# According to a method conforming to Randall, L. O. and Selitto, J. J. [Archives Internationales de Pharmacodynamie et de Therapie, 111, 409, (1957)], 0.1 ml of 10% Brewer's yeast suspension in physiological saline was injected subcutaneously into the plantar surface of the right hind paws of 5 male rats in each group (Sprague-Dawley strain) weighing 90 to 110 g. 2 Hours after administration of the yeast suspension, each test compound suspended in 0.3% CMC-Na solution was orally administered to the rats in an amount of 1.0 ml per 100 g of body weight of the rat. 30 Minutes, 60 minutes and 120 minutes after administration of the test compounds, threshold values of left and right hind paws of the rats were measured by an electric pressure device made by Daiwa Kinzoku Co., Ltd. (Japan). The change of threshold was obtained by comparing the pain threshold obtained in a group after the yeast injection with that obtained before the yeast injection, in the same group as above. Increasing percent of pain threshold of the test compound was calculated on the basis of the mean changes of threshold of the test group and of that of the control group. Rats of the control group were administered orally only 0.3% CMC-Na solution.
# According to the Litchfield-Wilcoxon method [The Journal of Pharmacology and Experimental Therapeutics, 96, 96, (1949)], ED50 value was calculated as follows on the basis of the increasing percent of pain threshold;
# [7] = 50 mg/Kg oral, 3 hour after administration
# [8] = 100 mg/Kg oral, 3 hour after administration
# [9] = 100 mg/Kg oral, 4 hour after administration
smiles,measurement,setting,value
CC(C(=O)C(=O)O)c1ccc(N2Cc3ccccc3C2=O)cc1 (centres unmarked) [2-Oxo-3-[4-(1-oxo-2-isoindolinyl)phenyl]butanoic acid],Inhibition to carrageenin edema,carrageenin edema; [7],22.5%
same,Inhibition to carrageenin edema,carrageenin edema; [8],53.2%
same,Mean number of gastric lesion,gastric mucosa [1]; 25 mg/Kg oral,0
same,Mean number of gastric lesion,gastric mucosa [1]; 50 mg/Kg oral,0
same,Mean number of gastric lesion,gastric mucosa [1]; 100 mg/Kg oral,1.0
same,Stability (in words),[2],more stable
CC(=O)Oc1ccccc1C(=O)O [Aspirin],Inhibition to writhing syndrome,[3]; 100 mg/Kg oral,0%
same,Inhibition to writhing syndrome,[3]; 200 mg/Kg oral,43%
same,Inhibition to writhing syndrome,[3]; 400 mg/Kg oral,70%
same,Drop of febrile body temperature,[4],1 °C
same,Degree of gastric damage (GD50),gastric mucosa [5]; 100 mg/Kg oral,2.0
same,Degree of gastric damage (GD50),gastric mucosa [5]; 200 mg/Kg oral,16.1
same,Degree of gastric damage (GD50),gastric mucosa [5]; 282 mg/Kg oral,18.6
same,Degree of gastric damage (GD50),gastric mucosa [5]; 400 mg/Kg oral,31.2
same,Mean number of gastric lesion,gastric mucosa [1]; 12.5 mg/Kg oral,1.0
same,Mean number of gastric lesion,gastric mucosa [1]; 25 mg/Kg oral,1.0
same,Mean number of gastric lesion,gastric mucosa [1]; 50 mg/Kg oral,5.4
same,Mean number of gastric lesion,gastric mucosa [1]; 100 mg/Kg oral,15.0
CC(C)Cc1ccc(C(C)C(=O)O)cc1 (centres unmarked) [Ibuprofen],Inhibition to carrageenin edema,carrageenin edema; [7],19.2 ± 22.0%
same,Inhibition to carrageenin edema,"carrageenin edema; 50 mg/Kg oral, 4 hour after administration",23.5 ± 14.2%
same,Inhibition to carrageenin edema,carrageenin edema; [8],42.2 ± 0.3%
same,Inhibition to carrageenin edema,carrageenin edema; [9],33.7 ± 3.1%
same,Inhibition to carrageenin edema,"carrageenin edema; 200 mg/Kg oral, 3 hour after administration",43.9 ± 1.0%
same,Inhibition to carrageenin edema,"carrageenin edema; 200 mg/Kg oral, 4 hour after administration",37.1 ± 4.7%
same,ED40,carrageenin edema,90 mg/kg
same,Inhibition to adjuvant arthritis,"adjuvant arthritis; 25 mg/Kg oral, 1st day",25.6%
same,Inhibition to adjuvant arthritis,"adjuvant arthritis; 25 mg/Kg oral, 4th day",15.7%
same,Inhibition to adjuvant arthritis,"adjuvant arthritis; 25 mg/Kg oral, 7th day",32.0%
same,Increase in body weight,adjuvant arthritis; 25 mg/Kg oral,26.7 g
same,Weight of the organs: Adrenal glands,adjuvant arthritis; 25 mg/Kg oral,13.7 ± 0.9 mg/100g of body weight
same,Weight of the organs: Spleen,adjuvant arthritis; 25 mg/Kg oral,420.5 ± 34.9 mg/100g of body weight
same,Weight of the organs: Thymus,adjuvant arthritis; 25 mg/Kg oral,143.3 ± 8.9 mg/100g of body weight
same,Inhibition to adjuvant arthritis,"adjuvant arthritis; 100 mg/Kg oral, 1st day",28.1%
same,Inhibition to adjuvant arthritis,"adjuvant arthritis; 100 mg/Kg oral, 4th day",37.3%
same,Inhibition to adjuvant arthritis,"adjuvant arthritis; 100 mg/Kg oral, 7th day",53.4%
same,Increase in body weight,adjuvant arthritis; 100 mg/Kg oral,16.0 g
same,Weight of the organs: Adrenal glands,adjuvant arthritis; 100 mg/Kg oral,15.3 ± 1.7 mg/100g of body weight
same,Weight of the organs: Spleen,adjuvant arthritis; 100 mg/Kg oral,438.0 ± 40.0 mg/100g of body weight
same,Weight of the organs: Thymus,adjuvant arthritis; 100 mg/Kg oral,127.8 ± 20.7 mg/100g of body weight
same,ED50,[6],130 mg/kg
CCCCC1C(=O)N(c2ccccc2)N(c2ccccc2)C1=O [Phenylbutazone],Inhibition to carrageenin edema,"carrageenin edema; 12.5 mg/Kg oral, 3 hour after administration",12.0 ± 5.5%
same,Inhibition to carrageenin edema,"carrageenin edema; 12.5 mg/Kg oral, 4 hour after administration",19.9 ± 3.7%
same,Inhibition to carrageenin edema,"carrageenin edema; 25 mg/Kg oral, 3 hour after administration",9.6 ± 8.3%
same,Inhibition to carrageenin edema,"carrageenin edema; 25 mg/Kg oral, 4 hour after administration",14.3 ± 4.7%
same,Inhibition to carrageenin edema,carrageenin edema; [8],54.3 ± 2.0%
same,Inhibition to carrageenin edema,carrageenin edema; [9],50.7 ± 6.0%
same,ED40,carrageenin edema,62 mg/kg
same,Inhibition to adjuvant arthritis,"adjuvant arthritis; 25 mg/Kg oral, 1st day",32.2%
same,Inhibition to adjuvant arthritis,"adjuvant arthritis; 25 mg/Kg oral, 4th day",28.8%
same,Inhibition to adjuvant arthritis,"adjuvant arthritis; 25 mg/Kg oral, 7th day",38.3%
same,Increase in body weight,adjuvant arthritis; 25 mg/Kg oral,30.9 g
same,Weight of the organs: Adrenal glands,adjuvant arthritis; 25 mg/Kg oral,13.2 ± 1.9 mg/100g of body weight
same,Weight of the organs: Spleen,adjuvant arthritis; 25 mg/Kg oral,441.7 ± 29.9 mg/100g of body weight
same,Weight of the organs: Thymus,adjuvant arthritis; 25 mg/Kg oral,141.6 ± 12.5 mg/100g of body weight
same,Inhibition to adjuvant arthritis,"adjuvant arthritis; 100 mg/Kg oral, 1st day",34.3%
same,Inhibition to adjuvant arthritis,"adjuvant arthritis; 100 mg/Kg oral, 4th day",37.9%
same,Inhibition to adjuvant arthritis,"adjuvant arthritis; 100 mg/Kg oral, 7th day",51.6%
same,Increase in body weight,adjuvant arthritis; 100 mg/Kg oral,31.4 g
same,Weight of the organs: Adrenal glands,adjuvant arthritis; 100 mg/Kg oral,12.0 ± 1.0 mg/100g of body weight
same,Weight of the organs: Spleen,adjuvant arthritis; 100 mg/Kg oral,444.0 ± 39.6 mg/100g of body weight
same,Weight of the organs: Thymus,adjuvant arthritis; 100 mg/Kg oral,146.2 ± 14.8 mg/100g of body weight
same,ED50,[6],250 mg/kg
same,Inhibition to writhing syndrome,[3]; 100 mg/Kg oral,10%
same,Inhibition to writhing syndrome,[3]; 200 mg/Kg oral,15%
same,Inhibition to writhing syndrome,[3]; 400 mg/Kg oral,61%
same,Degree of gastric damage (GD50),gastric mucosa [5]; 100 mg/Kg oral,5.2
same,Degree of gastric damage (GD50),gastric mucosa [5]; 200 mg/Kg oral,10.0
same,Degree of gastric damage (GD50),gastric mucosa [5]; 282 mg/Kg oral,13.0
same,Mean number of gastric lesion,gastric mucosa [1]; 50 mg/Kg oral,0.2
same,Mean number of gastric lesion,gastric mucosa [1]; 100 mg/Kg oral,4.2
same,Mean number of gastric lesion,gastric mucosa [1]; 200 mg/Kg oral,9.6
